We go through 10 molecules from patent US9382426B2, “Water-insoluble coloring compound, ink, thermal transfer recording sheet, and color filter resist composition” (CANON KABUSHIKI KAISHA, priority 2012, dated 2016).

Holding throughout (assay type): physicochemical
Series [1] can be described thus: Evaluation of light resistance of color filters, xenon tester. As to conditions: color filter containing the compound; xenon tester 50 hours, 0.39 W/m^2 at 340 nm, 40° C., relative humidity 60%. As to the method: Ink (11) of the present invention was prepared by mixing 12 parts of Compound (1) as the water-insoluble coloring compound of the present invention and 120 parts of cyclohexanone and dispersing the mixture with an attritor (manufactured by Mitsui Mining Co., Ltd.) for 1 hour.
Twenty-two parts of Ink (11) was slowly added to a solution of 6.7 parts of an acrylic copolymer composition (weight average molecular weight Mw: 10000) composed of, as a monomer ratio, 40% by mass of n-butyl methacrylate, 30% by mass of acrylic acid, and 30% by mass of hydroxyethyl methacrylate, 1.3 parts of dipentaerythritol pentaacrylate, and 0.4 parts of 2-benzyl-2-dimethylamino-1-(4-morpholinophenyl)-butanone (photopolymerization initiator) in 96 parts of cyclohexanone, followed by stirring at room temperature for 3 hours. The reaction solution was filtered through a filter of 1.5 μm pore size to yield color filter yellow resist composition (1) of the present invention.
Color filter yellow resist composition (1) was spin-coated on a glass substrate and was then dried at 90° C. for 3 min, and the entire surface was then exposed to light and post-cured at 180° C. to produce color filter (1).
(§1) Each of the resulting color filters and the thermal transfer recording sheets was charged in a xenon tester (Atlas Ci4000, manufactured by Suga Test Instruments Co., Ltd.) and was subjected to exposure conditions (irradiance: 0.39 W/m^2 at 340 nm, temperature: 40° C., relative humidity: 60%) for 50 hours. The reflection densities of printed matters were measured before and after the test. The color difference (ΔE) was calculated from the initial chromaticity values a0*, b0*, L0* and the chromaticity values a*, b*, L* after the exposure by the following expression: ΔE=√{square root over ((a*−a0*)^2+(b*−b0*)^2+(L*−L0*)^2)} [Math. 2] The evaluation criteria are as follows: • A: ΔE<3.50 • B: 3.50≦ΔE<5.00 • C: 5.00≦ΔE

Series [2] in a line: Evaluation of light resistance of thermal transfer recording sheets, xenon tester. As to conditions: thermal transfer recording sheet containing the compound; xenon tester 50 hours, 0.39 W/m^2 at 340 nm, 40° C., relative humidity 60%. As for the experimental part: Ink (14) of the present invention was prepared by gradually adding 5 parts of a polyvinyl butyral resin (Denka 3000-K, manufactured by Denki Kagaku Kogyo K.K.) to a solution of 13.5 parts of Compound (4), as the water-insoluble coloring compound of the present invention, in a mixture of 45 parts of methyl ethyl ketone and 45 parts of toluene with stirring.
Ink (14) was applied onto a polyethylene terephthalate film (Lumirror, manufactured by Toray Industries, Inc.) having a thickness of 4.5 μm so as to have a dried thickness of 1 μm and was dried to produce thermal transfer recording sheet (4).
as §1

Series [3] is described as follows: Light resistance evaluation of compound: ink image samples on paper, xenon tester. The arrangement: key to Light resistance ΔE (color difference): ΔE = Euclidean distance of L*a*b* before vs after exposure. The following applies: ink image sample on paper; xenon tester 10 hours, 0.39 W/m^2 at 340 nm, 40° C., relative humidity 60%. As for the experimental part:
Ink (1) of the present invention was prepared by mixing 5 parts of Compound (1) as the water-insoluble coloring compound of the present invention, 350 parts of toluene, 350 parts of ethyl acetate, and 300 parts of 2-butanone.
Inks (1), (2), (4), (8), (13), (15), (23), (28), (29), and (30) and Comparative Inks (1) and (2) were each applied onto paper for contrast ratio measurement by bar coating (Bar No. 10) and were air-dried overnight to produce image samples. Chromaticity values (L*, a*, b*) in the L*a*b* color system of each image sample were measured with a reflection densitometer SpectroLino (manufactured by Gretag Macbeth AG).
as §1, with “the image samples produced in” for “the resulting color filters and”, “the chromaticity measurement” for “the thermal transfer recording sheets”, “for 10” for “for 50”, “b*, L” for “b*, L*”, “[Math. 1]” for “[Math. 2]”

On to `Cc1c(/N=N/c2ccccc2)c(O)n(N)c(=O)c1C#N` [Comparative Compound (1), reference compound], for which the results for the “Light resistance ΔE (color difference)” value in series [1], in series [2] and in series [3] were 12.8, 15.1 and 10.6, respectively. Further, the “Light resistance ΔE, evaluation grade” value in series [1], in series [2] and in series [3] was “C (C: 5.00≦ΔE)” each time.

As to `CCCCC(CC)CN(CC(CC)CCCC)S(=O)(=O)c1ccc(/N=N/c2c(C)c(C#N)c(=O)n(N(C)C(=O)C(C)(C)C)c2O)cc1` (stereo not drawn) [Compound (29)], in series [2], the “Light resistance ΔE (color difference)” value was determined as 2.56 and the “Light resistance ΔE, evaluation grade” value is recorded as “A (A: ΔE<3.50)”. In series [3], the “Light resistance ΔE (color difference)” value is given as 3.77 and the “Light resistance ΔE, evaluation grade” value is recorded as “B (B: 3.50≦ΔE<5.00)”.

As for `CCCCC(CC)CN(CC(CC)CCCC)C(=O)c1ccc(/N=N/c2c(C)c(C#N)c(=O)n(N(CCCC)CCCC)c2O)cc1` (stereo not drawn) [Compound (30)], the “Light resistance ΔE (color difference)” value in series [2] came out at 4.89; in series [3] it was 2.44. For the same molecule, the “Light resistance ΔE, evaluation grade” value was “B (B: 3.50≦ΔE<5.00)” in series [2] and “A (A: ΔE<3.50)” in series [3].

In the case of `CCCCC(CC)CN(CC(CC)CCCC)S(=O)(=O)c1ccc(/N=N/c2c(C)c(C#N)c(=O)n(N)c2O)cc1` (stereo not drawn) [Compound (23)], the figures for the “Light resistance ΔE (color difference)” value in series [2] and in series [3] were 2.54 and 2.37, respectively. For the same molecule, the “Light resistance ΔE, evaluation grade” value in series [2] and in series [3] was “A (A: ΔE<3.50)” in each case.

Turning to `CCCCC(CC)CN(CC(CC)CCCC)C(=O)c1ccc(/N=N/c2c(C)c(C#N)c(=O)n(N3CCCCC3)c2O)cc1` (stereo not drawn) [Compound (28)], in series [2], the “Light resistance ΔE (color difference)” value stood at 2.32 and the “Light resistance ΔE, evaluation grade” value is recorded as “A (A: ΔE<3.50)”. In series [3], the “Light resistance ΔE (color difference)” value is 1.64 and the “Light resistance ΔE, evaluation grade” value is recorded as “A (A: ΔE<3.50)”.

On to `CCCCC(CC)CN(CC(CC)CCCC)C(=O)c1ccccc1/N=N/c1c(C)c(C#N)c(=O)n(N)c1O` (stereo not drawn) [Compound (1)], for which, in series [1], the “Light resistance ΔE (color difference)” value worked out at 2.99 and the “Light resistance ΔE, evaluation grade” value is “A (A: ΔE<3.50)”. Besides, in series [3], the “Light resistance ΔE (color difference)” value turned out to be 3.64 and the “Light resistance ΔE, evaluation grade” value was “B (B: 3.50≦ΔE<5.00)”.

Take `CCCCC(CC)CN(CC(CC)CCCC)C(=O)c1cccc(/N=N/c2c(C)c(C#N)c(=O)n(N(C)C)c2O)c1` (stereo not drawn) [Compound (13)]: in series [2], the “Light resistance ΔE (color difference)” value came to 3.37 and the “Light resistance ΔE, evaluation grade” value was “A (A: ΔE<3.50)”. For the same molecule, in series [3], the “Light resistance ΔE (color difference)” value was 3.98 and the “Light resistance ΔE, evaluation grade” value is “B (B: 3.50≦ΔE<5.00)”.

Consider `CCCCC(CC)CN(CC(CC)CCCC)C(=O)c1cccc(/N=N/c2c(C)c(C#N)c(=O)n(N)c2O)c1` (stereo not drawn) [Compound (4)], for which, in series [2], the “Light resistance ΔE (color difference)” value stood at 2.76 and the “Light resistance ΔE, evaluation grade” value is “A (A: ΔE<3.50)”. In addition, in series [3], the “Light resistance ΔE (color difference)” value is listed as 1.70 and the “Light resistance ΔE, evaluation grade” value was “A (A: ΔE<3.50)”.

Take `CCCCC(CC)CN(CC(CC)CCCC)C(=O)c1cccc(/N=N/c2c(C)c(C#N)c(=O)n(NC(=O)C(CC)CCCC)c2O)c1` (stereo not drawn) [Compound (15)]: the “Light resistance ΔE (color difference)” value is 4.21 in series [1] and 4.32 in series [3]. In addition, the “Light resistance ΔE, evaluation grade” value in series [1] and in series [3] was “B (B: 3.50≦ΔE<5.00)” each time.

On to `CCCCC(CC)CN(CC(CC)CCCC)C(=O)c1ccc(/N=N/c2c(-c3ccccc3)c(C#N)c(=O)n(NC(=O)c3ccccc3)c2O)cc1` (stereo not drawn) [Compound (8)], for which the “Light resistance ΔE (color difference)” value in series [1] came out at 2.68; in series [3] it was 2.81. Further, the “Light resistance ΔE, evaluation grade” value in series [1] and in series [3] was “A (A: ΔE<3.50)” each time.
